From US6432962B1, “Benzophenones as inhibitors of IL-1β and TNF-α” (Leo Pharmaceutical Products Ltd. A/S, priority 2000, dated 2002)

What was measured:
[1] = tested on: Human polymorphonuclear (PMN) granulocytes, superoxide anion generation; assay: Inhibition of PMN superoxide secretion (ferricytochrome C reduction); type: cell-based; settings: human PMN primed with TNF-α, fMLP stimulated; read-out: Inhibition of PMN-superoxide production in vitro, median inhibition concentration (IC50)
Description: The compounds of the present invention also show similar activities in the ability to inhibit PMN (polymorphonuclear) superoxide secretion which is also indicative of potentially useful anti-inflammatory drugs. The compounds were tested using the following procedure: Human polymorphonuclear (PMN) granulocytes were isolated from human blood by dextran sedimentation, Lymphoprep® fractionation and hypotonic lysis of contaminating erythrocytes. Superoxide anion generation was measured as the superoxide dismutase inhibitable reduction of ferricytochrome C (Madhu, S. B. et al, Inflammation, 16, 241, (1992)). The cells were suspended in Hanks' balanced salt solution, and incubated for 10 minutes at 37° C. with test compounds. The cells were primed by the addition of TNF-α (3 ng/mL final concentration) for 10 minutes, and then ferricytochrome C, (final concentration 750 μg/mL), bovine serum albumin (BSA, final concentration 1 mg/mL) and formylmethionyl-leucyl-phenylalanine (fMLP, final concentration 10^-7 M) were added for 3 minutes. The cells were chilled on ice, and were spun down. The optical densities in the cell-free supernatant was measured in a spectrophotometer. The median inhibitory concentration (IC50) of the compounds was calculated.

[2] = tested on: IL-1β secretion, LPS stimulated peripheral blood mononuclear cells; assay: Inhibition of IL-1β secretion from LPS stimulated peripheral blood mononuclear cells; type: cell-based; settings: LPS stimulated human PBMC, 18 hours, ELISA; read-out: Inhibition of cytokines in vitro, median inhibition concentration (IC50), IL-1β
Description: (§1) To study the effect of the compound of the present invention in vitro the inhibition of the IL-1β and TNF-α secretion was measured using the following procedure: Cytokine production was measured in the media from lipopolysaccharide (LPS) stimulated peripheral blood mononuclear cells. The mononuclear cells were isolated from human peripheral blood by Lymphoprep® (Nycomed, Norway) fractionation and suspended in RPMI 1640 (growth medium) with foetal calf serum (FCS, 2%), at a concentration of 5×10^5 cells/ml. The cells were incubated in 24-well tissue culture plates in 1 mL aliquots. Test compounds were dissolved in dimethylsulfoxide (DMSO, 10 mM) and were diluted with the medium. Compounds were added to the cells for 30 minutes, then LPS ([…] final concentration) was added. The plates were incubated for 18 hours, and the concentration of IL-1β and TNF-α in the medium was determined by enzyme-linked immunosorbent assays. The median inhibitory concentrations (IC50) of the compounds were calculated.

[3] = tested on: TNF-α secretion, LPS stimulated peripheral blood mononuclear cells; assay: Inhibition of TNF-α secretion from LPS stimulated peripheral blood mononuclear cells; type: cell-based; settings: LPS stimulated human PBMC, 18 hours, ELISA; read-out: Inhibition of cytokines in vitro, median inhibition concentration (IC50), TNF-α
Description: as §1

[4] = Log P of the tested compounds; type: physicochemical
p38α MAP kinase = target: T1, p38α MAP kinase (Homo sapiens, UniProt Q16539); assay: p38α MAP kinase assay; type: biochemical; settings: immunoprecipitated FLAG-p38α from COS-1 cells, GST-ATF-2 substrate; read-out: IC50 values for the inhibition of p38α MAP kinase, mean concentration
T1 construct: made in house; host or cells: COS-1 cells (transient co-transfection, anti-FLAG M2 immunoprecipitation)
T1 sequence (Q16539 whole entry): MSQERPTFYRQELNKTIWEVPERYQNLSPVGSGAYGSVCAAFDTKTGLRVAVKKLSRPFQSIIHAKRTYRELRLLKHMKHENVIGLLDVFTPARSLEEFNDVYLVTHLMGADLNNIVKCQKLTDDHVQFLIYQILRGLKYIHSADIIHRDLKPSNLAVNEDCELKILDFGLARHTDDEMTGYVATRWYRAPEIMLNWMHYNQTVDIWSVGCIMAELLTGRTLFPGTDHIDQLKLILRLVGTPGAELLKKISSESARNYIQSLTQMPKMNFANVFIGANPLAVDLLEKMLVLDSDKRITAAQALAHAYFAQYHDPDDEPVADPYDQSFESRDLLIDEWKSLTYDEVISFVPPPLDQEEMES
Description: Transient Expression of COS-1 Cells
On day one COS-1 cells were seeded in 143 cm^2 petridish with a density of 2×10^4 cells/cm^2 in growth medium. At day 2 the cells were co-transfected with 5 μg (total) of experimental plasmid DNA, expressing the FLAG-p38α and FLAG-MKK6(EE). The plasmids were introduced into the COS-1 cells in serum-free medium using DOTAP™ (Boehringer-Mannheim, Mannheim, Germany). Plasmid DNA was prepared and purified using the QIAGEN EndoToxin-free Maxiprep-500 kit (Hilden, Germany). Briefly, DNA and DOTAP™ were mixed for exactly 15 min. at 37° C. in the CO2 incubator. The transfection-mixture was hereafter transferred to a 15-mL falcon-tube and transfection-medium (DMEM with L-Glutamine and Pen./Strep. but without serum) was added to the transfection-mixture, followed by addition to the cell-monolayer. After 4 hours of incubation with DOTAP™ and plasmids, the medium containing double amount of serum was added to the cells bringing the final concentration of serum up to 10%. […]
The reaction was allowed to proceed for 30 min. at 30° C., and it was stopped by adding 40 μl of 2×SDS-sample buffer to the kinase reaction. […] The dried SDS-PAGE gel was exposed to a Phospho-Imager screen and the radioactive PHAS-1 bands were quantified by the STORM860 Phospho-Imager (Molecular Dynamics, Sunnyvale, Calif., USA) using the ImageQuaNT software.

Compound	IC50 [1] [nM]	IC50 [2] [nM]	IC50 [3] [nM]	logP [4]	IC50 (p38α MAP kinase) [nM]	Log P [4]
Cc1ccccc1C(=O)c1ccc(Nc2ccccc2N)cc1Cl [Ref. comp., 4-(2-aminophenylamino)-2-chloro-2′-methylbenzophenone, reference compound]	5	13	7.1	4.9	–	–
Cc1ccccc1C(=O)c1ccc(Nc2cncc3ccccc23)cc1Cl [Compound 114, 2-Chloro-4-(4-isoquinolylamino)-2′-methylbenzophenone]	15	31	5	4.2	12.8	–
Cc1ccccc1C(=O)c1ccc(Nc2c[n+]([O-])cc3ccccc23)cc1Cl [Compound 128, 2-Chloro-4((4-isoquinolyl-N-oxide)amino)-2′-methylbenzophenone]	12.6	15.8	3.1	–	–	4.4
